Data taken from paper PMC9967275, “Screening the Pathogen Box to Discover and Characterize New Cruzain and TbrCatL Inhibitors” (Pathogens, 2023).

Tests used:
cruzain = cruzain (Trypanosoma cruzi, UniProt P25779); test: biochemical; settings: for Cruzain 0’ Inhibition / Cruzain 10’ Inhibition: sheet "Screening results"
Summary of the method: (§1)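 Recombinant enzymes assayed by Z-Phe-Arg-AMC cleavage at 25 °C, fluorescence 340/440 nm over 5–7 min, with 10 min or no enzyme–compound preincubation.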

TbrCatL = molecular target: T1, TbrCatL (Trypanosoma brucei rhodesiense, UniProt Q95PM0); test: TbrCatL enzymatic inhibition assay (cleavage of fluorogenic substrate Z-FR-AMC); format: biochemical; settings: for TbrCatL 0’ Inhibition / TbrCatL 10’ Inhibition: sheet "Screening results"
T1 construct: Conor Caffrey (University of California San Diego)
T1 sequence (Q95PM0 entry or part of it): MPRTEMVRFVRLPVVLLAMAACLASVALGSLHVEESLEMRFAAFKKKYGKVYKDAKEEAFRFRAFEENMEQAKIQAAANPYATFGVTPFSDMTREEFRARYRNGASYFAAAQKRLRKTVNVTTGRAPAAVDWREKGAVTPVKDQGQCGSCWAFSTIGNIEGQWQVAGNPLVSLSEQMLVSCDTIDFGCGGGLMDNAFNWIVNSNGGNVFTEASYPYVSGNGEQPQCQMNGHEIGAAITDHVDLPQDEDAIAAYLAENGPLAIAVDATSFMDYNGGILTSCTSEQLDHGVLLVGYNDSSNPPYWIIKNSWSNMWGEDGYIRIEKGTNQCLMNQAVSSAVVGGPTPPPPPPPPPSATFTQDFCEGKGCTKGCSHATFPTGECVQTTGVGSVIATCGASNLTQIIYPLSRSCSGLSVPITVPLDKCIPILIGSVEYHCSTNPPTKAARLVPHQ
Summary of the method: as §1

[1] = 0’ (pre-incubation time), Pathogen Box screening results
[2] = 10’ (pre-incubation time), Pathogen Box screening results
[3] = 0’ (no pre-incubation), sheet Screening results
[4] = 10’ (pre-incubation), sheet Screening results
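Also: at 5 µM compound concentration.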

Sequence of cruzain (P25779 123-337 limits assumed): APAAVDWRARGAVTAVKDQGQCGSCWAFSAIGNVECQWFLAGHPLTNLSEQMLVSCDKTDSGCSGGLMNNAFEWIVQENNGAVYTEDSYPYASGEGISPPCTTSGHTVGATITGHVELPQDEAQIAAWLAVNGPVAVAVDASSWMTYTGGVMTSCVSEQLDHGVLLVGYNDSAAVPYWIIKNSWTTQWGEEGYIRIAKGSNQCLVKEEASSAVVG

| Structure (SMILES) | Cruzain Inhibition 0’ (cruzain; [3]) [%] | Cruzain Inhibition 10’ (cruzain; [4]) [%] | TbrCatL Inhibition 0’ (TbrCatL; [3]) [%] | TbrCatL Inhibition 10’ (TbrCatL; [4]) [%] | Cruzain 0’ Inhibition (cruzain; 0’ (pre-incubation time)) [%] | Cruzain 10’ Inhibition (cruzain; 10’ (pre-incubation time)) [%] | TbrCatL 0’ Inhibition (TbrCatL; 0’ (pre-incubation time)) [%] | TbrCatL 10’ Inhibition (TbrCatL; 10’ (pre-incubation time)) [%] | also measured |
| --- | --- | --- | --- | --- | --- | --- | --- | --- | --- |
| Cc1cc(Cl)ccc1NC(=O)CCc1ccc(S(=O)(=O)NCC(C)C)cc1 [MMV161996] | – | – | – | – | – | – | – | – | Cruzain Inhibition 0’ (cruzain; [1]): -2.2%; Cruzain Inhibition 10’ (cruzain; [2]): 9%; TbrCatL Inhibition 0’ (TbrCatL; [1]): 15%; TbrCatL Inhibition 10’ (TbrCatL; [2]): 1.5% |
| CC(=O)Nc1ccc(NC(=O)c2cc(-c3cc(Cl)ccc3O)n[nH]2)cc1 [MMV676380] | 0.6 | -0.9 | -5 | -3 | – | – | – | – | – |
| COc1ccc2nccc(NC(=O)C3CCN(CCc4ccc(Cl)cc4)CC3)c2n1 [MMV688844] | – | – | – | – | 1.4 | -1.1 | 4 | -1.5 | – |
| CC1=Nc2ccc(Cl)cc2C(c2ccccc2)N1CCNC(=O)CN(C)C (stereo not drawn) [MMV688410] | – | – | – | – | -0.5 | 3.8 | -4.7 | -3.5 | – |
| COC(=O)c1c(NC(=O)c2c(F)c(F)c(F)c(F)c2F)sc2c1CCCCC2 [MMV461553] | -34 | -24 | -16 | 9 | – | – | – | – | – |
| Cc1ccc(S(=O)(=O)n2cc(-c3ccnc(N)c3)c3cc(Br)cnc32)cc1 [MMV024114] | – | – | – | – | -9 | 15 | -5 | 1.6 | – |
| COc1cc(Br)cc2cc(C(=O)Nc3cccc(C(F)(F)F)c3)c(=O)oc12 [MMV688891] | – | – | – | – | -4.4 | -0.7 | 0 | -2.6 | – |
| CS(=O)(=O)Cc1nc2ccccc2oc1=O [MMV553002] | 18 | 12 | 19 | 19 | – | – | – | – | – |
| CC(=O)N1CCN(c2ccc(Oc3ccc(Cl)cc3O)cc2)CC1 [MMV688330] | – | – | – | – | – | – | – | – | Cruzain Inhibition 0’ (cruzain; [1]): -3%; Cruzain Inhibition 10’ (cruzain; [2]): -11%; TbrCatL Inhibition 0’ (TbrCatL; [1]): -8%; TbrCatL Inhibition 10’ (TbrCatL; [2]): -10% |
| O=C(c1ccc(F)cc1)N(CCNc1ccccc1)c1ccccc1 [MMV676204] | 6 | 4.7 | 2.6 | -1.3 | – | – | – | – | – |
| Oc1c(I)cc(I)c2cccnc12 [MMV002817] | 0.2 | -16 | 0.5 | -24 | – | – | – | – | – |
| Cn1c(=O)c2c(S(C)(=O)=O)snc2n(C)c1=O [MMV687251] | – | – | – | – | 12 | 2.8 | 2.7 | 0.4 | – |
| COc1ccc(C2=NN(C3CCCCCC3)C(=O)C2(C)C)cc1OCc1ccccn1 [MMV688360] | 14 | 11 | 13 | 16 | – | – | – | – | – |
| Cc1cc(OCC(=O)Nc2ccc(C(C)C)cc2)n(C)c(=O)c1C#N [MMV1198433] | – | – | – | – | -4.6 | -6 | -5 | -4.5 | – |
| COC(=O)c1c(NC(=O)c2cc3ccccc3oc2=O)sc2c1CCN(Cc1ccccc1)C2 [MMV676480] | 24 | 5.6 | 0.5 | -3.2 | – | – | – | – | – |
| O=C(NC1CC1)c1ccc(N2CCOc3ccc(Cl)cc32)s1 [MMV020537] | 18 | 9 | 8 | 6 | – | – | – | – | – |
| CC(C)(C)c1cnc(NC(=O)c2ccccc2O)s1 [MMV495543] | – | – | – | – | – | – | – | – | Cruzain Inhibition 0’ (cruzain; [1]): -17%; Cruzain Inhibition 10’ (cruzain; [2]): 3.4%; TbrCatL Inhibition 0’ (TbrCatL; [1]): -9%; TbrCatL Inhibition 10’ (TbrCatL; [2]): 6.5% |
| c1ccc(Oc2ccc(-c3cc(C4CCOCC4)[nH]n3)cc2)cc1 [MMV687762] | 9 | 7 | 17 | 12 | – | – | – | – | – |

| Structure (SMILES) | Cruzain Inhibition 0’ (cruzain; [3]) [%] | Cruzain Inhibition 10’ (cruzain; [4]) [%] | TbrCatL Inhibition 0’ (TbrCatL; [3]) [%] | TbrCatL Inhibition 10’ (TbrCatL; [4]) [%] | Cruzain 0’ Inhibition (cruzain; 0’ (pre-incubation time)) [%] | Cruzain 10’ Inhibition (cruzain; 10’ (pre-incubation time)) [%] | TbrCatL 0’ Inhibition (TbrCatL; 0’ (pre-incubation time)) [%] | TbrCatL 10’ Inhibition (TbrCatL; 10’ (pre-incubation time)) [%] | also measured |
| --- | --- | --- | --- | --- | --- | --- | --- | --- | --- |
| CCCS(=O)(=O)N1CCC(CO)(Cc2ccccc2C(F)(F)F)CC1 [MMV001059] | – | – | – | – | 0.9 | -1.3 | -3.7 | -0.8 | – |
| Cc1nn(Cc2ccccc2)c(Cl)c1C(=O)NC1CCCCCC1 [MMV063404] | 11 | 7.6 | 7.6 | 2 | – | – | – | – | – |
| O=C1Nc2ccc(Br)cc2C12NCCc1c2[nH]c2ccccc12 (stereo not drawn) [MMV006239] | 7.5 | 2.2 | 2.6 | 2.6 | – | – | – | – | – |
| CCC(=O)Nc1ccccc1C(=O)Nc1ccccn1 [MMV202553] | 15 | 14 | 15 | 7 | – | – | – | – | – |
| COc1cc(-c2cc(-c3ccc(S(C)(=O)=O)cc3)cnc2N)ccc1O [MMV010576] | – | – | – | – | 1.1 | 4 | 0.5 | 0.9 | – |
| CCC(NC(=O)c1ccccc1NC(=O)c1ccc(C)cc1)C(=O)OC (stereo not drawn) [MMV019551] | – | – | – | – | -0.5 | 1.2 | -0.4 | 3.2 | – |
| COC(=O)Nc1nc2ccc(C(=O)c3ccccc3)cc2[nH]1 [MMV003152] | 3.3 | -1.4 | 4.7 | -5.3 | – | – | – | – | – |
| Cc1cc(NC(=O)c2ccc(Oc3ccc(Cl)cc3O)o2)no1 [MMV688955] | – | – | – | – | -9 | -13 | -6 | -12 | – |
| O=C(OCc1ccccc1)N1CCC(c2cc(-c3ccncc3)c(-c3ccc(F)cc3)[nH]2)CC1 [MMV688509] | – | – | – | – | -3.8 | 3.8 | -13 | -13 | – |
| CCN(CC)CCCCCCNc1cc(OC)cc2c(C)ccnc12 [MMV000063] | 16 | 3 | 2.7 | 5.6 | – | – | – | – | – |
| O=C(NC1=NCCS1)c1sc2cc(F)ccc2c1Cl [MMV676584] | -2.7 | 9 | -0.5 | -9 | – | – | – | – | – |
| CN1CCN(c2nccc3nc(-c4ccc(F)c(F)c4)[nH]c23)CC1 [MMV676260] | – | – | – | – | -9 | 1.2 | 0.7 | 5 | – |
| COc1ccccc1OCCCCn1c(C2CC2)nc2ccccc21 [MMV676474] | -7 | -11 | -3.8 | -17 | – | – | – | – | – |
| CNc1nnc(Sc2cnn(-c3ccccc3)c(=O)c2Cl)s1 [MMV688763] | 6 | 9 | 7.5 | 1.7 | – | – | – | – | – |
| Cc1cccc(-c2nc(Nc3ccncn3)c3sccc3n2)n1 [MMV688122] | -1.4 | -17 | 19 | -8 | – | – | – | – | – |
| CC(=O)Oc1ccccc1C(=O)Nc1ncc([N+](=O)[O-])s1 [MMV688991] | 8 | 4 | 10 | 3.7 | – | – | – | – | – |
| NS(=O)(=O)c1cncc(-c2ccc3nccc(-c4cn[nH]c4)c3n2)c1 [MMV024101] | – | – | – | – | 7 | 26 | 6 | 34 | – |
| O=C(CCC1CCCCC1)Nc1cccc(-c2nnc(-c3ccco3)o2)c1 [MMV676589] | 0 | 4 | 3.3 | 4.4 | – | – | – | – | – |
